Data taken from the supplement of paper PMC7661543.
± gives the standard deviation of the averaged measurements.

What follows are compounds tested on HCC-38 (assay: relative cell number vs DMSO control (72 h) (% of DMSO); higher = less growth inhibition (more cells)). Conditions: sgRNA knockout: sgNT, 10000 nM.
Method: (§1)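 QMAP-Seq: a pool of 5 breast cancer cell lines (ZR-75-1, SKBR3, HCC-38, MDA-MB-231, BT-20), each carrying 12 doxycycline-inducible Cas9 sgRNA perturbations (11 knockouts plus non-targeting sgNT), was treated with compounds for 72 h at four 10-fold doses (10 nM-10 uM or 1 nM-1 uM range). Barcodes were amplified and sequenced, and cell number was interpolated from 293T spike-in standard curves. The result is expressed as % of the median of DMSO wells. Two biological replicates.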

Row | Compound | relative cell number
1 | CC(C)(C#N)c1ccc(N2C(=O)OCc3cnc4ccc(-c5cnc6ccccc6c5)cc4c32)cc1 | 33.2 ± 4.7
2 | CC(C)C[C@@H](C=O)NC(=O)[C@H](CC(C)C)NC(=O)[C@H](CC(C)C)NC(=O)OCc1ccccc1 [MG132] | 8.104 ± 0.025
3 | C[C@@H](Oc1cc(-c2cnn(C3CCNCC3)c2)cnc1N)c1c(Cl)ccc(F)c1Cl [Crizotinib] | 25.9 ± 4.9
4 | CC(C)(C)c1cnc(CSc2cnc(NC(=O)C3CCNCC3)s2)o1 [SNS032] | 27.8 ± 0.81
5 | Nc1ccn([C@@H]2O[C@H](CO)[C@@H](O)C2(F)F)c(=O)n1 [Gemcitabine] | 11.1 ± 3.8
6 | CCCS(=O)(=O)Nc1ccc(F)c(C(=O)c2c[nH]c3ncc(Cl)cc23)c1F [PLX4720] | 98.3 ± 14
7 | CC[C@H](Nc1ncnc2[nH]cnc12)c1nc2cccc(F)c2c(=O)n1-c1ccccc1 [CAL101] | 83.8 ± 32
8 | COc1nc(N)nc2c1ncn2[C@@H]1O[C@H](CO)[C@@H](O)[C@@H]1O [Nelarabine] | 109 ± 4.1
9 | COc1cc(-n2c(=S)[nH]c3ccccc3c2=O)c(Cl)cc1Cl [Mdivi1] | 83.1 ± 20
10 | CCOC(=O)c1ccc(N2NC(=O)C(=Cc3ccc([N+](=O)[O-])o3)C2=O)cc1 [PYR41] | 84.8 ± 5.1

What follows are compounds tested on MDA-MB-231 in the same assay as above. Conditions: sgRNA knockout: sgNT, 1 nM.
Method: as §1

Row | Compound | relative cell number
11 | CC(C)(C#N)c1cc(Cn2cncn2)cc(C(C)(C)C#N)c1 [Anastrozole] | 107 ± 8.8
12 | N#Cc1ccc(C(c2ccc(C#N)cc2)n2cncn2)cc1 [Letrozole] | 84.7 ± 9.7
13 | CN1CCN(c2ccc(C(=O)Nc3n[nH]c4ccc(Cc5cc(F)cc(F)c5)cc34)c(NC3CCOCC3)c2)CC1 [Entrectinib] | 86.7 ± 26

Same assay, conditions: sgRNA knockout: sgNT, 10 nM

Row | Compound | relative cell number
14 | CC(C)(C#N)c1cc(Cn2cncn2)cc(C(C)(C)C#N)c1 [Anastrozole] | 110 ± 75
15 | COC(=O)[C@]12CCC(C)(C)C[C@H]1[C@H]1C(=O)C=C3[C@@]4(C)C=C(C#N)C(=O)C(C)(C)[C@@H]4CC[C@@]3(C)[C@]1(C)CC2 [BardoxoloneMethyl] | 109 ± 22
16 | Cc1sc2c(c1C)C(c1ccc(Cl)cc1)=N[C@@H](CC(=O)OC(C)(C)C)c1nnc(C)n1-2 [(+)-JQ1] | 109 ± 30
17 | CCOC(=O)CCNc1cc(N2CCc3ccccc3CC2)nc(-c2ccccn2)n1 [GSKJ4] | 98.3 ± 30
18 | O=C1NC(=O)/C(=C/c2ccc3nccc(-c4ccncc4)c3c2)S1 | 79.8 ± 14
19 | N#Cc1ccc(C(c2ccc(C#N)cc2)n2cncn2)cc1 [Letrozole] | 109 ± 10
20 | CC(C)n1c(/C=C/C(O)CC(O)CC(=O)O)c(-c2ccc(F)cc2)c2ccccc21 (stereo not given) [Fluvastatin] | 108 ± 46
21 | Cn1nnc2c(C(N)=O)ncn2c1=O [Temozolomide] | 125 ± 13
22 | CN(C)C(=O)c1ccc(S(=O)(=O)c2ccc(NC(=O)[C@@](C)(O)C(F)(F)F)c(Cl)c2)cc1 [AZD7545] | 103 ± 17
23 | CC(C)(C#N)c1ccc(N2C(=O)OCc3cnc4ccc(-c5cnc6ccccc6c5)cc4c32)cc1 | 104 ± 25
24 | CC(C)C[C@@H](C=O)NC(=O)[C@H](CC(C)C)NC(=O)[C@H](CC(C)C)NC(=O)OCc1ccccc1 [MG132] | 121 ± 1.8
25 | C[C@@H](Oc1cc(-c2cnn(C3CCNCC3)c2)cnc1N)c1c(Cl)ccc(F)c1Cl [Crizotinib] | 89.5 ± 29
26 | CN1CCN(c2ccc(C(=O)Nc3n[nH]c4ccc(Cc5cc(F)cc(F)c5)cc34)c(NC3CCOCC3)c2)CC1 [Entrectinib] | 101 ± 9.8
27 | CC(C)(C)c1cnc(CSc2cnc(NC(=O)C3CCNCC3)s2)o1 [SNS032] | 106 ± 3.3
28 | Nc1ccn([C@@H]2O[C@H](CO)[C@@H](O)C2(F)F)c(=O)n1 [Gemcitabine] | 18.5 ± 3.2
29 | CCCS(=O)(=O)Nc1ccc(F)c(C(=O)c2c[nH]c3ncc(Cl)cc23)c1F [PLX4720] | 129.8 ± 0.69
30 | CC[C@H](Nc1ncnc2[nH]cnc12)c1nc2cccc(F)c2c(=O)n1-c1ccccc1 [CAL101] | 122 ± 4.8
31 | COc1nc(N)nc2c1ncn2[C@@H]1O[C@H](CO)[C@@H](O)[C@@H]1O [Nelarabine] | 82 ± 19
32 | COc1cc(-n2c(=S)[nH]c3ccccc3c2=O)c(Cl)cc1Cl [Mdivi1] | 93.3 ± 18
33 | CCOC(=O)c1ccc(N2NC(=O)C(=Cc3ccc([N+](=O)[O-])o3)C2=O)cc1 [PYR41] | 133 ± 62

Same assay, conditions: sgRNA knockout: sgNT, 100 nM

Row | Compound | relative cell number
34 | CC(C)(C#N)c1cc(Cn2cncn2)cc(C(C)(C)C#N)c1 [Anastrozole] | 121 ± 17
35 | COC(=O)[C@]12CCC(C)(C)C[C@H]1[C@H]1C(=O)C=C3[C@@]4(C)C=C(C#N)C(=O)C(C)(C)[C@@H]4CC[C@@]3(C)[C@]1(C)CC2 [BardoxoloneMethyl] | 66.5 ± 37
36 | Cc1sc2c(c1C)C(c1ccc(Cl)cc1)=N[C@@H](CC(=O)OC(C)(C)C)c1nnc(C)n1-2 [(+)-JQ1] | 99.7 ± 4
37 | CCOC(=O)CCNc1cc(N2CCc3ccccc3CC2)nc(-c2ccccn2)n1 [GSKJ4] | 123 ± 22
38 | O=C1NC(=O)/C(=C/c2ccc3nccc(-c4ccncc4)c3c2)S1 | 87.5 ± 0.95
39 | N#Cc1ccc(C(c2ccc(C#N)cc2)n2cncn2)cc1 [Letrozole] | 77.2 ± 7.3
40 | CC(C)n1c(/C=C/C(O)CC(O)CC(=O)O)c(-c2ccc(F)cc2)c2ccccc21 (stereo not given) [Fluvastatin] | 92.1 ± 46
41 | Cn1nnc2c(C(N)=O)ncn2c1=O [Temozolomide] | 108 ± 27
42 | CN(C)C(=O)c1ccc(S(=O)(=O)c2ccc(NC(=O)[C@@](C)(O)C(F)(F)F)c(Cl)c2)cc1 [AZD7545] | 121 ± 14
43 | CC(C)(C#N)c1ccc(N2C(=O)OCc3cnc4ccc(-c5cnc6ccccc6c5)cc4c32)cc1 | 94.3 ± 3.9
44 | CC(C)C[C@@H](C=O)NC(=O)[C@H](CC(C)C)NC(=O)[C@H](CC(C)C)NC(=O)OCc1ccccc1 [MG132] | 77.3 ± 41
45 | C[C@@H](Oc1cc(-c2cnn(C3CCNCC3)c2)cnc1N)c1c(Cl)ccc(F)c1Cl [Crizotinib] | 88.8 ± 15
46 | CN1CCN(c2ccc(C(=O)Nc3n[nH]c4ccc(Cc5cc(F)cc(F)c5)cc34)c(NC3CCOCC3)c2)CC1 [Entrectinib] | 93.3 ± 6.3
47 | CC(C)(C)c1cnc(CSc2cnc(NC(=O)C3CCNCC3)s2)o1 [SNS032] | 75.8 ± 13
48 | Nc1ccn([C@@H]2O[C@H](CO)[C@@H](O)C2(F)F)c(=O)n1 [Gemcitabine] | 20.3 ± 7.1
49 | CCCS(=O)(=O)Nc1ccc(F)c(C(=O)c2c[nH]c3ncc(Cl)cc23)c1F [PLX4720] | 136 ± 62
50 | CC[C@H](Nc1ncnc2[nH]cnc12)c1nc2cccc(F)c2c(=O)n1-c1ccccc1 [CAL101] | 68.4 ± 19
